The text below walks through data of article PMC10459710 (Viruses, 2023).

A value given as a limit tells only on which side of the number the result lay.

A short description of data set [1]: CellTiter-Glo cell viability assay in Vero cells. The data set is classed as cell-based, African green monkey. The following applies: African green monkey, 72 h exposure. For orientation: In ATP-based viability assays light output follows the ATP content of the culture.
The test system of data set [2] is HSV-1. The data set can be described thus: Cytopathic effect. As to conditions: for IC50: 48 h; for Selective Index: SI = CC50/IC50, CPE reduction assay, Vero cells. Type of data set: cell-based, Herpes simplex virus type 1 (strain H129). For orientation: Cytopathic effects are the visible damage that an infection or toxin causes in cultured cells.
For data set [3], the system named is Vero cells. The data set can be described thus: CellTiter-Glo cell viability assay in Vero cells. Type of data set: cell-based, African green monkey. As to conditions: 72 h exposure.
A short description of data set [4]: CellTiter-Glo cell viability assay in HepG2 cells. Type of data set: cell-based. As to conditions: human, 72 h exposure.
Data set [5] has as its system HSV-1. The data set can be described thus: Plaque reduction assay (viral titer in supernatant), HSV-1-infected Vero cells. The following applies: for Viral titer: HSV-1 MOI 0.01, 48 h, supernatant. The data set is classed as cell-based, Herpes simplex virus type 1 (strain H129). On the technique in general: Plaques are areas of infected cells; plaque reduction assays count them against a control.

Data set [6] relates to HSV-1. Nature of the data set: BMS treatment during different time periods of the HSV-1 life cycle. The data set is classed as cell-based, Herpes simplex virus type 1 (strain H129).
In data set [7] the test system is HSV-1. Nature of the data set: Virus entry assay (IFA, anti-ICP5). Type of data set: cell-based, Herpes simplex virus type 1 (strain H129).
Data set [8] relates to HSV-1 IE, E, and L genes. The data set can be described thus: HSV-1 IE, E and L gene expression (qRT-PCR and Western blot) in Vero cells. Type of data set: cell-based, Herpes simplex virus type 1 (strain H129).
For data set [9], the system named is HSV-2. The data set can be described thus: Anti-HSV-2 activity in Vero cells by plaque assay. The data set is classed as cell-based, Herpes simplex virus type 2 (strain G). The following applies: HSV-2, Vero cells.
Data set [10] deals with cyclin B-dependent CDK1. As to conditions: read-out: in vitro IC50; cited from earlier work.
Data set [11] concerns HSV-1. The data set can be described thus: Virus attachment assay (IFA, anti-gD). As to conditions: BMS at 0.5, 5, and 50 µM, 4 °C, MOI 10. Type of data set: cell-based, Herpes simplex virus type 1 (strain H129).
Data set [12] relates to HSV-1 DNA. Nature of the data set: Intracellular and virion-associated HSV-1 DNA levels by real-time PCR. Type of data set: cell-based, Herpes simplex virus type 1 (strain H129). As to conditions: Vero cells, MOI 0.01, 24 h, qPCR.
The subject of data set [13] is HSV-1. Nature of the data set: Plaque reduction assay, HSV-1-infected HepG2 cells. Type of data set: cell-based, Herpes simplex virus type 1 (strain H129). As to conditions: Human alphaherpesvirus 1, HSV-1 MOI 0.01, HepG2 cells, 48 h.
Data set [14] has as its system HSV-1. Nature of the data set: Time-of-addition assay, HSV-1 in Vero cells, plaque assay readout. The data set is classed as cell-based, Herpes simplex virus type 1 (strain H129).
A short description of data set [15]: CellTiter-Glo cell viability assay in Hela cells. Type of data set: cell-based. As to conditions: human, 72 h exposure.
In data set [16] the test system is cycle E-dependent CDK2. The following applies: read-out: in vitro IC50; cited from earlier work.
The test system of data set [17] is HSV-1. The data set can be described thus: Plaque reduction assay, HSV-1-infected Hela cells. The data set is classed as cell-based, Herpes simplex virus type 1 (strain H129). As to conditions: Human alphaherpesvirus 1, HSV-1 MOI 0.01, Hela cells, 48 h.
In data set [18] the test system is HCMV. Set-up: method as in earlier work. As to conditions: cited from earlier work.
Setting [19] is: Human alphaherpesvirus 1, HSV-1 MOI 0.01, Vero cells, CPE reduction, ND = Not detectable, read-out: IC50.

On to `CCN1CCN(Cc2ccc(Nc3ncc(F)c(-c4cc(F)c5nc(C)n(C(C)C)c5c4)n3)nc2)CC1` [Abemaciclib], for which it took 29.1 µM to reach half-maximal cytotoxicity in data set [1] (CC50 at 72 h).

Take `Nc1nc2c(ncn2COCCO)c(=O)[nH]1` [Acyclovir, acyclovir]: in data set [2] (setting [19]), the IC50 came to 0.42 µM. Also, the “Selective Index” value in [2] was above 238.10. In addition, in [1], the CC50 at 72 h is above 100 µM.

Turning to `CC(=O)Nc1cc(Oc2ccc3c(C(=O)Nc4ccc(CN5CCN(C)CC5)c(C(F)(F)F)c4)cccc3c2)ncn1` [BGG463], it took 18.5 µM to reach half-maximal cytotoxicity in [3] (CC50).

Take `CCCCOc1c(C(=O)c2c(F)cc(C)cc2F)c[nH]c2nncc1-2` [BMS-265246]: the CC50 at 72 h in [4] is above 500 µM; in data set [15], 189 µM; in [1], above 500 µM. The Viral titer in [5] (BMS 0.02 μM) is given as 5.90 log10PFU/mL; in data set [5] (BMS 0.07 μM) it was 5.87 log10PFU/mL; in [5] (BMS 0.21 μM) it was 5.85 log10PFU/mL; in [5] (BMS 0.62 μM), 5.76 log10PFU/mL; in data set [5] (BMS 1.85 μM) it was 5.01 log10PFU/mL; in data set [5] (BMS 5.56 μM), 3.40 log10PFU/mL. Besides, the Viral titer in data set [5] (BMS 16.67 μM) is on record as 2.60 log10PFU/mL; in data set [5] (BMS 50 μM), 2.24 log10PFU/mL. Further, the IC50 in data set [5] (Human alphaherpesvirus 1, HSV-1 MOI 0.01, Vero cells, 48 h, plaque assay) is 0.95 µM; in data set [2] (Human alphaherpesvirus 1, Vero), 0.08 µM; in data set [9] (Human alphaherpesvirus 2, plaque assay), 1.06 µM; in data set [10], 0.006 µM; in [13] it was 1.03 µM; in data set [16], 0.009 µM. Besides, in data set [17], the IC50 worked out at 0.18 µM. Further, in [6] (50 μM BMS at 5–10 and 10–15 hpi, MOI 0.1, 30 h of infection), the “virus production (plaque assay)” value is recorded as “significantly suppress virus production”. Besides, the “transcription of ICP27, ICP8, and gD” value in data set [6] (50 μM BMS during 0–5, 5–10, 10–15, or 15–20 hpi, MOI 1, Vero cells) is “dramatically suppresses”. The “Selective Index” value in data set [2] is reported as above 6250; in data set [9] (CC50/IC50), above 472. Also, the “entry of HSV-1 to Vero cells” value in data set [7] (BMS at 0.5, 5, and 50 µM, 37 °C 30 min, MOI 10) was “did not affect the entry”. The “expression of ICP5 (IFA over 1-4 hpi)” value in [7] (Vero cells, MOI 10, 1, 2, 3, and 4 h at 37 °C) is “the expression of ICP5 was prevented”. For the same molecule, the “transcripts of the IE gene ICP27, the E gene ICP8, and the L gene gD” value in [8] (MOI 0.01, qRT-PCR at 4, 8, and 20 hpi) is on record as “concentration-dependently suppressed”. Besides, the “protein levels of ICP4, ICP8, ICP5, and gB” value in data set [8] (Western blot at 24 hpi) is on record as “reduced by BMS concentration-dependently”. Also, in [11], the “binding of HSV-1 to Vero cells” value was “did not affect the binding”. In addition, the “intracellular HSV-1 DNA levels” value in data set [12] (Hirt method) is “decreases concentration-dependently”. For the same molecule, the “virion-associated HSV-1 viral DNA levels” value in data set [12] (supernatant) was “reduced concentration-dependently”. The “production of progeny virions” value in data set [14] (pretreatment of the cells) is on record as “significantly reduced”. For the same molecule, in [14] (treatment started at 4 or 10 hpi until harvesting), the viral titer reduction result is listed as “less than one logarithm”.

In data set [1], `COC(=O)[C@]1(Cc2ccc(O)c(CC=C(C)C)c2)OC(=O)C(O)=C1c1ccc(O)cc1` [Butyrolactone I] returned a CC50 at 72 h of 151 µM.

Turning to `CCn1cnc2c(Nc3cccc(Cl)c3)nc(N[C@@H]3CCCC[C@@H]3N)nc21` [CGP74514A], in data set [18], the “reduction of HCMV replication compared with untreated controls” value is recorded as ~ 300 fold.

For the molecule `COc1ccc(CNc2nc(N(CCO)CCO)nc3c2ncn3C(C)C)cc1` [CVT-313], half-maximal cytotoxicity in data set [3] (CC50) was put at 6.38 µM.

With `CCc1cnn2c(NCc3ccc[n+]([O-])c3)cc(N3CCCC[C@H]3CCO)nc12` [Dinaciclib], the CC50 at 72 h in data set [1] is 1.13 µM.

In data set [1], `CN1CC[C@H](c2c(O)cc(O)c3c(=O)cc(-c4ccccc4Cl)oc23)[C@H](O)C1` [Flavopiridol] returned a CC50 at 72 h of 0.16 µM.

With `COc1ccccc1-c1cc(Nc2cccc(CS(N)(=O)=O)c2)ncn1` [LDC000067], the CC50 in data set [3] was found to be 14.4 µM.

`Cc1n[nH]c2ncc(C(=O)N3CCC[C@H]3c3ccc(Cl)cc3)cc12` [MSC2530818]: in [2] (setting [19]), the IC50 came out at 25 µM. For the same molecule, the “Selective Index” value in data set [2] was 5.54. Further, the cytotoxic concentration (CC50) at 72 h in data set [1] amounted to 138 µM.

With `C=CS(=O)(=O)c1ccc(Nc2nc(OCC3CCCCC3)c3[nH]cnc3n2)cc1` [NU6300], in data set [3], the CC50 came to 13.8 µM.

Molecule `Nc1cc(Nc2ccc(S(N)(=O)=O)cc2)ncn1` [PNU112455A] had a CC50 in data set [3] of 156 µM.

In the case of `CC(C)[C@H](CO)Nc1nc(Nc2ccc(C(=O)O)c(Cl)c2)c2ncn(C(C)C)c2n1` [Purvalanol B], half-maximal cytotoxicity in [1] (CC50 at 72 h) was put at 73.5 µM.

Regarding `O=C1NC(=NCc2cccs2)S/C1=C\c1ccc2ncccc2c1` [Ro-3306], the CC50 in [3] was 14.1 µM. That is a double-digit micromolar value.

`CC[C@H](CO)Nc1nc(NCc2ccccc2)c2ncn(C(C)C)c2n1` [Seliciclib] came in with a CC50 at 72 h in [1] of 18.5 µM.

`CN(C)C/C=C/C(=O)Nc1cccc(C(=O)Nc2cccc(Nc3ncc(Cl)c(-c4c[nH]c5ccccc45)n3)c2)c1` [THZ2]: in data set [3], the CC50 amounted to 0.42 µM.

The term CC50 denotes the concentration at which the toxic effect on the cells reaches its halfway point. The term IC50 denotes the concentration needed to halve the response being measured.
